US20200261445A1, “USE OF SENOLYTIC AGENTS TO ELIMINATE PERSISTENT HIV RESERVOIRS” (The George Washington University, priority 2017, published 2020)

What was measured:
Bcl-2 family proteins = conditions: selectivity within the Bcl-2 family, Table 1; cited from earlier work
[1] = test system: HIV latency reservoir (resting CD4+ T cells); experiment: HIVE assay with quantitative viral outgrowth (IUPM), three HIV latency reservoir models; assay type: cell-based; conditions: A-463 only (100 nM per FIG. 9F); all three models; p<0.01
Procedure: (§1) For each condition tested, up to 200×10^6 PBMC were thawed from leukapheresis material. An aliquot of PBMCs was stained with antibodies to CD3, CD4, CD8, HLA-DR, and CD69 for flow cytometry analysis (pre-selection sample). Resting CD4^+ T-cells were enriched from these PBMC by negative selection (Easysep CD4^+ T-cell enrichment kit, Stemcell Technologies) following the manufacturer's instructions. Cells were washed and re-suspended in 1 ml of 2% FBS PBS and an aliquot was stained as above (post-selection sample). To proceed, >98% pure resting CD4^+ T-cells in the negative fraction we required. […]
(§2) Co-cultures were harvested at 4 days post-initiation of co-culture. […] CD4^+ T-cells were then fixed in 2% paraformaldehyde, and analyzed by flow cytometry on an LSR-II instrument and with FlowJo software.
(§3) DNA quantification: 2×10^6 cells/condition were centrifuged and DNA, for ddPCR, was extracted from cell pellets using the Gentra Puregene kit (Qiagen), following the manufacturer's instructions. This DNA was then analyzed by digital droplet polymerase chain reaction (see below). Infectious virus quantification: The remaining cells, to be used for viral outgrowth assays, were incubated overnight in R10-50+4 nM IL-15SA (ALT-803) at a concentration of 2×10^6 cells/ml. These cells are then plated out in quantitative viral outgrowth assays (see below). […]

[2] = test system: HIV latency reservoir (resting CD4+ T cells); experiment: HIVE assay with ddPCR of total HIV DNA, three HIV latency reservoir models; assay type: cell-based; conditions: A-463 only (100 nM per FIG. 9E); all three models; p<0.01
Procedure: as §1, §2, §3

Bcl-xL = Bcl-xL (Homo sapiens, UniProt Q07817); conditions: Table 1; cited from earlier work
[3] = test system: HIV latency reservoir models spiked into natural reservoirs; experiment: 'Spiked' HIVE assay with QVOA (latency model cells spiked into natural reservoirs); assay type: cell-based; conditions: Bryostatin 10 nM, ABT-199 100 nM, HIV-specific CTLs, FIG. 10
Procedure: For experiments using CTL clones as effectors, clones were used at […] after their most recent re-stimulation. Specificity, functionality, and responsiveness of CTLs were confirmed by CD107a degranulation assays, as well as by HIV elimination assays the day before assay setup. Clones were washed extensively prior to addition to co-culture.
NK cells and CTL clones were added at 1:10 effector:target ratios, with or without the indicated latency reversing agents. […]
as §2, §3

resting CD4+ T cells = experiment: Cell cytotoxicity in HIV latency reservoir model cultures; assay type: cell-based, human; conditions: ABT-199 at 1 μM; not enough cells left to measure replication-competent virus (FIG. 9A)
Procedure: For each condition tested, up to 200×10^6 PBMC were thawed from leukapheresis material. An aliquot of PBMCs was stained with antibodies to CD3, CD4, CD8, HLA-DR, and CD69 for flow cytometry analysis (pre-selection sample). Resting CD4^+ T-cells were enriched from these PBMC by negative selection (Easysep CD4^+ T-cell enrichment kit, Stemcell Technologies) following the manufacturer's instructions. Cells were washed and re-suspended in 1 ml of 2% FBS PBS and an aliquot was stained as above (post-selection sample). To proceed, >98% pure resting CD4^+ T-cells in the negative fraction we required.
NK cells and CTL clones were added at 1:10 effector:target ratios, with or without the indicated latency reversing agents. Co-cultures were performed at 2×10^6 cells/ml in XVIVO-15 serum free medium (Lonza) that had been supplemented with penicillin-streptomycin, L-glutamine, 0.1 nM IL-7 (to support survival), 1 μM tenofovir, 1 μM nevirapine, 1 μM emtricitabine, 10 μM T20, 10 U/ml DNAse I (ProSpec) ([…]). […]
Co-cultures were harvested at 4 days post-initiation of co-culture. […] CD4^+ T-cells were then fixed in 2% paraformaldehyde, and analyzed by flow cytometry on an LSR-II instrument and with FlowJo software. […]

Sequence of Bcl-xL (Q07817 whole entry): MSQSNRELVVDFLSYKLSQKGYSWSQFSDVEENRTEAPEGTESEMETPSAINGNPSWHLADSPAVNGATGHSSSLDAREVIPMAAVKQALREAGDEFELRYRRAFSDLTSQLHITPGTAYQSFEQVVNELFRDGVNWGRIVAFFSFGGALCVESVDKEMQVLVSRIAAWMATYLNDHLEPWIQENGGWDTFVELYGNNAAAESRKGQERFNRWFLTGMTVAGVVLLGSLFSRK

Row | Compound | Selective/pan (Bcl-2 family proteins) | Known Bcl-xL inhibition (Bcl-xL) | further results
1 | Cc1nn(C)c(COc2ccc(N3CCN(S(=O)(=O)N(C)C)CC3)cc2)c1-c1cccc2c(CCCOc3cccc4ccccc34)c(C(=O)O)n(CCN3CCOCC3)c12 [A-1210477] | Selective | – | –
2 | CN(C)CC#Cc1ccc(OCCCc2sc(N3CCc4cccc(C(=O)Nc5nc6ccccc6s5)c4C3)nc2C(=O)O)c(F)c1 [A-1155463] | Selective | – | infectious replicative competent (IUPM) [1]: statistically significant reduction; total HIV DNA copies [2]: statistically significant reduction
3 | Cc1c(-c2ccc(N3CCc4cccc(C(=O)Nc5nc6ccccc6s5)c4C3)nc2C(=O)O)cnn1CC12CC3CC(CC(C3)C1)C2 [A-1331852] | Selective | – | –
4 | Cc1cc2c(C(=O)NC[C@H](C)c3ccccc3)c(O)c(O)cc2c(O)c1-c1c(C)cc2c(C(=O)NC[C@H](C)c3ccccc3)c(O)c(O)cc2c1O [Sabutoclax] | Pan | Yes | –
5 | ABT-263 | Pan | Yes | –
6 | CCC/C=C/C=C/C(=O)O[C@H]1/C(=C/C(=O)OC)C[C@H]2C[C@H]([C@@H](C)O)OC(=O)C[C@H](O)C[C@@H]3C[C@H](OC(C)=O)C(C)(C)[C@](O)(C[C@@H]4C/C(=C/C(=O)OC)C[C@H](/C=C/C(C)(C)[C@]1(O)O2)O4)O3 [Bryostatin, bryostatin 1] | – | – | IUPM compared to the NoTx condition [3]: did not lead to significant decreases
7 | CC1(C)CCC(CN2CCN(c3ccc(C(=O)NS(=O)(=O)c4ccc(NCC5CCOCC5)c([N+](=O)[O-])c4)c(Oc4cnc5[nH]ccc5c4)c3)CC2)=C(c2ccc(Cl)cc2)C1 [ABT-199, Venetoclax] | – | – | cell cytotoxicity (resting CD4+ T cells): cell cytotoxicity
8 | CC(C)C(C(=O)O)N1C(=O)/C(=C\c2ccc(Br)cc2)SC1=S (centres unmarked) [BH31-1] | Pan | Yes | –
9 | CC(C)=CCC[C@]1(C)C=Cc2c(O)c3c(c(CC=C(C)C)c2O1)O[C@]12C(=C[C@@H]4C[C@H]1C(C)(C)O[C@@]2(C/C=C(/C)C(=O)O)C4=O)C3=O [Gambogic Acid] | Pan | Yes | –
10 | CC(C)c1ccccc1Cc1cc(C(=O)Nc2ccc(S(=O)(=O)c3ccccc3C(C)(C)C)cc2)c(O)c(O)c1O [TW-37] | Pan | Yes | –
11 | O=C(O)CSc1cc(NS(=O)(=O)c2ccc(Br)cc2)c2ccccc2c1O [UMI-77] | Selective | – | –
12 | Cc1cc2c(C(C)C)c(O)c(O)c(C=O)c2c(O)c1-c1c(C)cc2c(C(C)C)c(O)c(O)c(C=O)c2c1O [AT101] | Pan | Yes | –
